According to US20260209226A1 (EmpathBio, Inc., priority 2023, published 2026):
pIC50: −log10 of the molar value. Several values for one entry are separate records, joined by “and”; a condition that tells them apart may be missing. Equal values may be shown once. Read-outs that look alike come from different tables or passages of the source.

Experiments:
Type in all cases: cell-based
[1] = target: T1, Human Serotonin Transporter (SERT) (Homo sapiens, UniProt P31645); test: Human Serotonin Transporter (SERT) Uptake Inhibition Assay ([3H]-Serotonin uptake in HEK cells); details: HEK cells expressing recombinant SERT, individual experiments separated by commas; for SERT UPTAKE INHIBITION (%) @1 uM: 1 uM test compound; for SERT UPTAKE INHIBITION (%) @100 uM: 100 uM test compound; for inhibition at 10 µM: HEK293, 10 uM test compound; for inhibition at 100 µM: HEK293, 100 uM test compound; for inhibition at 1 µM: HEK293, 1 uM test compound
T1 construct: expressed in transfected cells; host or cells: HEK cells
Method: Compound activity is assessed using an in vitro assay. Briefly, HEK cells expressing recombinant serotonin transporter (SERT) are plated at 50,000 cells/well on a 96 well plate pre-coated with Matrigel one day prior to the experiment. Culture medium (DMEM/FBS) is removed and 30 μl of assay buffer (Tris-HCl 50 mM, EDTA 4 mM, BDA 0.1%) with the desired concentration of test compound is added. The plate is incubated at 37° C. for 15 minutes. Assay buffer (30 μl) containing the same concentration of compound diluted in [^3H]-Serotonin uptake buffer (final concentration 10 nM) is added to each well and the plate is incubated at 37° C. for 5 minutes. The reaction mixture is removed, and the cells are washed with 100 μl ice-cold assay buffer twice. Lysis buffer (50 μl) is added to the cells followed by a 5 minute incubation with gentle shaking at room temperature. The lysate is transferred to a 96 well isoplate. Optiphase supermix (100 μl) is added to each well with complete mixing. Radioactivity is counted with Microbeta Counter and reported as counts per minute (CPM). Fluoxetine is used as a control to measure non-specific uptake and for data normalization. Percent inhibition of [^3H]-Serotonin uptake calculations: 100×(1−(CPMtest sample−CPMnon_specific uptake)/(CPMMAX−CPMMIN)) are summarized in Table 2. Subsequent experiments using the same assay were performed with select compounds with a greater range of concentrations (10 half-log dilutions from a top concentration of 100 μM), allowing for the determination of IC50s. IC50s were determined using the log(inhibitor) vs. normalized response—Variable slope model in GraphPad Prism 10.1.0 and are summarized in Table 3.

[2] = target: T2, Human Dopamine Transporter (DAT) (Homo sapiens, UniProt Q01959); test: Human Dopamine Transporter (DAT) Uptake Inhibition Assay ([3H]-Dihydroxyphenylethylamine uptake in HEK cells); details: HEK cells expressing recombinant DAT, individual experiments separated by commas
T2 construct: expressed in transfected cells; host or cells: HEK cells
Method: (§1) Compound activity is assessed using an in vitro assay. Briefly, HEK cells expressing recombinant dopamine transporter (DAT) are plated at 50,000 cells/well on a 96 well plate pre-coated with Matrigel one day prior to the experiment. Culture medium (DMEM/FBS) is removed and 30 μl of assay buffer (Tris-HCl 50 mM, EDTA 4 mM, BDA 0.1%) with the desired concentration of test compound is added. The plate is incubated at 37° C. for 15 minutes. Assay buffer (30 μl) containing the same concentration of compound diluted in [^3H]-Dihydroxyphenylethylamine uptake buffer (final concentration 20 nM) is added to each well and the plate is incubated at 37° C.; for 5 minutes. The reaction mixture is removed, and the cells are washed with 100 μl ice-cold assay buffer twice. Lysis buffer (50 μl) is added to the cells followed by a 5 minute incubation with gentle shaking at room temperature. The lysate is transferred to a 96 well isoplate. Optiphase supermix (100 μl) is added to each well with complete mixing. Radioactivity is counted with Microbeta Counter and reported as CPM. Nomifensine is used as a control to measure non-specific uptake and for data normalization. Percent inhibition of [^3H]-Dihydroxyphenylethylamine uptake calculations: 100×(1−(CPMtest sample−CPMnon-specific uptake)/(CPMMAX−CPMMIN)). Test compounds were screened at 10 concentrations at half-log dilutions from a top concentration of 100 μM. IC50s were determined using the log(inhibitor) vs. normalized response—Variable slope model in GraphPad Prism 10.1.0 and are summarized in Table 3.

[3] = target: T3, Human Norepinephrine Transporter (NET) (Homo sapiens, UniProt P23975); test: Human Norepinephrine Transporter (NET) Uptake Inhibition Assay ([3H]-Norepinephrine uptake in HEK cells); details: HEK cells expressing recombinant NET, individual experiments separated by commas
T3 construct: expressed in transfected cells; host or cells: HEK cells
Method: as §1, with “Norepinephrine” for “dopamine”, “(NET)” for “(DAT)”, “[^3H]-Norepinephrine” for “[^3H]-Dihydroxyphenylethylamine”, “C.” for “C.;”, “Desiparmine” for “Nomifensine”, “100×(1−CPMtest sample−CPMnon_specific” for “100×(1−(CPMtest sample−CPMnon-specific”

[4] = 10 half-log dilutions from 100 μM, read-out: DAT Uptake Inhibition IC50
[5] = 10 half-log dilutions from 100 μM, read-out: SERT Uptake Inhibition IC50
[6] = 10 half-log dilutions from 100 μM, read-out: NET Uptake Inhibition IC50

T2 sequence (Q01959 whole entry): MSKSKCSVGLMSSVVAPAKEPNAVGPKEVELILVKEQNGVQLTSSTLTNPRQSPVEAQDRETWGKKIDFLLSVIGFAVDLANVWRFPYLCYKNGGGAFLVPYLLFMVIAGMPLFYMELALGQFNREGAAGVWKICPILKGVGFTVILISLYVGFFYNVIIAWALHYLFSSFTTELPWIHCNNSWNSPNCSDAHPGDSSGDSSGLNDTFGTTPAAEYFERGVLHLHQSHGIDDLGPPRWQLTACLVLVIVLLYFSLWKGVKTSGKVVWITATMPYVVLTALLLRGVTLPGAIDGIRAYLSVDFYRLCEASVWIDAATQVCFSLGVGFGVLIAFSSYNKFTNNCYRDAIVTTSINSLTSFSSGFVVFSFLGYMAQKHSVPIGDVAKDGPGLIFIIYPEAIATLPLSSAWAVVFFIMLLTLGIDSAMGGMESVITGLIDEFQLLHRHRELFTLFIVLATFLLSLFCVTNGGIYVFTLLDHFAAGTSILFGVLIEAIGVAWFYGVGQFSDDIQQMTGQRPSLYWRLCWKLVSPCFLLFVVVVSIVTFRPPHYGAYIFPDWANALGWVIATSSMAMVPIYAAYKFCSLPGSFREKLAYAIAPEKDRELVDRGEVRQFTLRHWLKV
T1 sequence (P31645 whole entry): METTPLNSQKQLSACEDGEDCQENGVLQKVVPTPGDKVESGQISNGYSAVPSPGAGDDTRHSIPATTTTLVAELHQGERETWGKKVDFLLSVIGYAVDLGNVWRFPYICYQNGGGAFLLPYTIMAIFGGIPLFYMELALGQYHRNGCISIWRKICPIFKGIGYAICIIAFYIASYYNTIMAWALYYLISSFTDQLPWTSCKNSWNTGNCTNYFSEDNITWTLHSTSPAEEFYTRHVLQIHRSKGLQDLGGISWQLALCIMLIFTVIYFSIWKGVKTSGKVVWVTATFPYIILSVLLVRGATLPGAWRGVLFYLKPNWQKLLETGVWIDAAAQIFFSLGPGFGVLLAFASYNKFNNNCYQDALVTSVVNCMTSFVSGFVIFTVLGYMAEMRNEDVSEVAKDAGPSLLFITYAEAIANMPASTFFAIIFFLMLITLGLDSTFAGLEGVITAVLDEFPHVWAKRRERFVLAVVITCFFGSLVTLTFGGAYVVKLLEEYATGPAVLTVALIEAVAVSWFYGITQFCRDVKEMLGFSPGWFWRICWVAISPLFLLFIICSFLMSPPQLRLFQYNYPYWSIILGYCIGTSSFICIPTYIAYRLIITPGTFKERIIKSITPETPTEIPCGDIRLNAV
T3 sequence (P23975 whole entry): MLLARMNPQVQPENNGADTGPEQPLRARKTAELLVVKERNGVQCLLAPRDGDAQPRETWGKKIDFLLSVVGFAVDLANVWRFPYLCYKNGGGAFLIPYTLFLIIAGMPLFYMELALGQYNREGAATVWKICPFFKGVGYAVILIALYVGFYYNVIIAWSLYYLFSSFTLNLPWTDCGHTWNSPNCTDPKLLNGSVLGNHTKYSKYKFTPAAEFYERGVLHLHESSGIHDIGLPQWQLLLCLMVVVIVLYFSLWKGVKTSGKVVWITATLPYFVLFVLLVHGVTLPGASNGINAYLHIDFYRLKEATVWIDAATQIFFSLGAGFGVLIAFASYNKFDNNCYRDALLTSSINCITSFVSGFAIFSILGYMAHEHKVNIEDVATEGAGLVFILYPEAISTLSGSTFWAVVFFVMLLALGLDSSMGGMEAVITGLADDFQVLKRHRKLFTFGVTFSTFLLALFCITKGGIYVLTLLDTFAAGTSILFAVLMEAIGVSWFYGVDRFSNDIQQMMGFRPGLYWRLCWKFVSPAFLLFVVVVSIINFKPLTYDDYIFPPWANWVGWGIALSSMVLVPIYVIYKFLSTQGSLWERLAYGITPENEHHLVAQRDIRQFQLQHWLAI

`CNC(C)Cc1ccc2c(c1)OCO2` (stereo not drawn) [18 MDMA, 3,4-methylenedioxymethamphetamine, reference compound] was tested, and the “SERT UPTAKE INHIBITION (%) @1 uM” value [1] was 25.0% and −1.67%, the “SERT UPTAKE INHIBITION (%) @10 uM” value ([1]; 10 uM test compound, 10 µM) was 70.1% and the “SERT UPTAKE INHIBITION (%) @100 uM” value [1] was 88.7% and 98.0% and 86.2%. For the same compound, the inhibition at 10 µM [1] was 53.3%, the inhibition at 100 µM [1] was 85.1% and the pIC50 ([1]; SERT Uptake Inhibition IC50, 10 half-log dilutions from 100 μM) was 5.28 and 5.29 and 5.50 and 5.83 and 5.68 and 5.66. The pIC50 [2, 4] was 5.28, the pIC50 ([2]; DAT Uptake Inhibition IC50, 10 half-log dilutions from 100 μM) was 5.46 and 5.26 and 5.13 and 4.99 and 4.87 and the pIC50 ([3]; NET Uptake Inhibition IC50, 10 half-log dilutions from 100 μM) was 5.85 and 5.63 and 6.03 and 5.87 and 5.64 and 5.54.

`CNC(C)Cc1ccn2ccnc2c1` (stereo not drawn) [Compound 1] showed an inhibition at 1 µM [1] of 3.6% and an inhibition at 100 µM [1] of 91.6%.

With `CNC(C)Cc1ccc2ncsc2c1` (stereo not drawn) [Compound 2] the “SERT UPTAKE INHIBITION (%) @1 uM” value [1] was 43.44% and −5.16%, the “SERT UPTAKE INHIBITION (%) @100 uM” value [1] was 93.94% and 91.08% and the pIC50 [1, 5] was 4.99. For the same compound, the inhibition at 10 µM [1] was 67.9%, the inhibition at 100 µM [1] was 88.8% and the pIC50 [2, 4] was 4.66. It also gave a pIC50 [3, 6] of 5.33.

In the case of `CNC(C)Cc1ccn2ncnc2c1` (stereo not drawn) [Compound 3], the “SERT UPTAKE INHIBITION (%) @1 uM” value [1] was −1.21% and −1.77%, the “SERT UPTAKE INHIBITION (%) @100 uM” value [1] was 69.13% and the inhibition at 100 µM [1] was 78.4%.

`CNC(C)Cc1ccc2scnc2c1` (stereo not drawn) [Compound 4] was tested, and the “SERT UPTAKE INHIBITION (%) @100 uM” value [1] was 87.43%, the pIC50 [1, 5] was 4.95 and the inhibition at 1 µM [1] was 20.2%. For the same compound, the inhibition at 10 µM [1] was 61.8%, the inhibition at 100 µM [1] was 91.5% and the pIC50 [2, 4] was 4.45. For the same compound, the pIC50 [3, 6] was 5.08.

`CC(N)Cc1ccn2ccnc2c1` (stereo not drawn) [Compound 5] showed an inhibition at 1 µM [1] of -0.48% and an inhibition at 100 µM [1] of 90.2%.

For `CC(N)Cc1ccc2ncsc2c1` (stereo not drawn) [Compound 6], the “SERT UPTAKE INHIBITION (%) @1 uM” value [1] was 51.1% and 4.94%, the “SERT UPTAKE INHIBITION (%) @100 uM” value [1] was 96.89% and the pIC50 [1, 5] was 5.12. The inhibition at 100 µM [1] was 94.6%, the pIC50 [2, 4] was less than 4.00 and the pIC50 [3, 6] was 5.96.

For `CC(N)Cc1ccn2ncnc2c1` (stereo not drawn) [Compound 7], the “SERT UPTAKE INHIBITION (%) @1 uM” value [1] was 11.89% and −1.06% and the “SERT UPTAKE INHIBITION (%) @100 uM” value [1] was 84.23% and 59.35%.

For `CC(N)Cc1ccc2scnc2c1` (stereo not drawn) [Compound 8], the “SERT UPTAKE INHIBITION (%) @100 uM” value [1] was 90.93%, the pIC50 [1, 5] was 4.94 and the inhibition at 1 µM [1] was 24%. The inhibition at 10 µM [1] was 68.7%, the inhibition at 100 µM [1] was 82.4% and the pIC50 [2, 4] was 4.68. For the same compound, the pIC50 [3, 6] was less than 4.00.

`CC(N)Cc1ccc2ncoc2c1` (stereo not drawn) [Compound 9, 1-(benzo[d]oxazol-6-yl)propan-2-amine] showed an inhibition at 10 µM [1] of -2.39% and an inhibition at 100 µM [1] of 87.9%.

`CNC(C)Cc1ccc2conc2c1` (stereo not drawn) [Compound 10, [1-(2,1-benzoxazol-6-yl)propan-2-yl](methyl)amine] was tested, and the inhibition at 10 µM [1] was 48.3% and the inhibition at 100 µM [1] was 96.8%.

`CC(N)Cc1ccc2conc2c1` (stereo not drawn) [Compound 11, 1-(2,1-benzoxazol-6-yl) propan-2-amine] was tested, and the inhibition at 10 µM [1] was 45.5% and the inhibition at 100 µM [1] was 96.6%.

With `CNC(C)Cc1ccc2ncnn2c1` (stereo not drawn) [Compound 12, methyl(1-{[1,2,4]triazolo[1,5-a]pyridin-6-yl}propan-2-yl)amine] the inhibition at 10 µM [1] was 0.25% and the inhibition at 100 µM [1] was 83.2%.

In the case of `CC(N)Cc1ccc2ncnn2c1` (stereo not drawn) [Compound 13], the inhibition at 10 µM [1] was 1.34% and the inhibition at 100 µM [1] was 73.1%.

With `C[C@H](N)Cc1ccc2ncsc2c1` [Compound 14, (S)-1-(benzo[d]thiazol-6-yl)propan-2-amine] the pIC50 [1, 5] was 5.18, the inhibition at 10 µM [1] was 46.6% and the inhibition at 100 µM [1] was 98.9%. The pIC50 [2, 4] was less than 4.00 and the pIC50 [3, 6] was 5.24.

`C[C@@H](N)Cc1ccc2ncsc2c1` [Compound 15, (R)-1-(benzo[d]thiazol-6-yl)propan-2-amine] was tested, and the inhibition at 10 µM [1] was 38% and the inhibition at 100 µM [1] was 97.5%.

`CN[C@@H](C)Cc1ccc2ncsc2c1` [Compound 16, (S)-1-(benzo[d]thiazol-6-yl)-N-methylpropan-2-amine] showed a pIC50 [1, 5] of 5.29, an inhibition at 10 µM [1] of 57.7% and an inhibition at 100 µM [1] of 99.1%. For the same compound, the pIC50 [2, 4] was less than 4.00 and the pIC50 [3, 6] was 5.38.

For `CN[C@H](C)Cc1ccc2ncsc2c1` [Compound 17, (R)-1-(benzo[d]thiazol-6-yl)-N-methylpropan-2-amine], the inhibition at 10 µM [1] was 32.5% and the inhibition at 100 µM [1] was 95.7%.
